The values below come from patent publication US20040001791A1, “Composition, method of use, and devices for the treatment of onychomycosis” (priority 2000, published 2004).

“Also recorded” adds a separate entry of the source.

For assay [1], the system named is fungal infected toe nail. In words: Topical treatment of a fungal infected toe nail in a patient. Format: in vivo, human. The note with it: aqueous 10% (w/v) solution applied approximately thirty minutes, air dried, washed with water, Example 2 repeated monthly. The source says: As the treated nail grew, healthy nail tissue appeared at the base of the nail bed while the infected portion of the nail was pushed off the nail bed and periodically trimmed away. […] A patient diagnosed as having a fungal infected toe nail began treatment by applying with a cotton swab an aqueous 10% (w/v) copper(II)sulfate pentahydrate solution to the infected nail as well as to all nails on the same foot. […] As the treated nail grew, healthy nail tissue appeared at the base of the nail bed while the infected portion of the nail was pushed off the nail bed and periodically trimmed away. […] The infected portion of the patient's nail continued to have a bluish color.

In assay [2] the test system is fungal infected fingernail (onychomycosis). In words: Topical treatment of a fungal infected fingernail in a patient. It counts as in vivo, human.
Description: The copper sulfate solution was applied to their fingernails for approximately thirty minutes and then allowed to air dry. Excess copper sulfate powder was removed by washing two-three times with water. […] Monthly, the copper sulfate solution was applied as given above to the infected fingernail and to all fingernails on the same hand.
The bandage was applied to the infected nail and secured in place. Care was given to ensure that the solution soaked into the crevice along the edge of the nail bed and cuticle. […] The bandage was worn for two days and then replaced with a clean dry bandage to protect the nail from snagging. The treatment was repeated on Day 31 and again on Day 45; no further treatments were given.

Take `O.O.O.O.O.O=S(=O)([O-])[O-].[Cu+2]` [copper(II)sulfate pentahydrate]: the “Outcome of toe nail treatment (spread of fungal infection, nail condition)” value in assay [1] is recorded as “the fungal infection did not spread to healthy nail tissue; also recorded: resulting in a normal healthy nail”. In assay [2] (patient, aqueous 10% (w/v) solution applied approximately thirty minutes, washed, repeated monthly), the “Outcome of fingernail treatment (spread of fungal infection, nail condition)” value is recorded as “resulting in a normal healthy nail”. On to `O=S(=O)([O-])[O-].[Cu+2]` [copper sulfate], for which, in assay [2] (person, right index fingernail, 10% aqueous solution with trace of detergent on bandage worn two days, Day 1, 31, 45, examined Day 132), the “Nail examination after treatment” value is listed as “New pink nail growth was present from the cuticle to a point midway along the nail”.
